Molecular target: full-length human BTK (Homo sapiens (Human), UniProt Q06187)
Assay: BTK IC50 enzyme assay (microfluidic off-chip mobility shift kinase assay)
Format: biochemical
Settings: incubated for 90 min. at 27 C; read-out: Time Dependent BTK Enzyme Assay IC50
Description: The following describes a microfluidic, off-chip mobility shift kinase assay used to measure inherent potency of compounds against BTK enzyme. Compounds described by embodiments of the present invention were assayed using this protocol and the data from the same is recorded in Table 2 within the column labeled: “Time Dependent BTK Enzyme Assay IC50”.
Stopped reactions were monitored at −2 PSI, −3000 V/−700 V in a LabChip 3000 plate reader from Caliper Life Sciences, a PerkinElmer Company (Hopkinton, Mass.), and the activity was measured by off-chip mobility shift assay measuring the charge/mass difference between substrate and product resulting from peptide phosphorylation. IC50 and efficacy were determined by plotting log [Inhibitor] vs. % Activity in GeneData Screener (Basel, Switzerland). […] I<1 uM and II>1 uM.

Chain of full-length human BTK (Q06187 whole entry): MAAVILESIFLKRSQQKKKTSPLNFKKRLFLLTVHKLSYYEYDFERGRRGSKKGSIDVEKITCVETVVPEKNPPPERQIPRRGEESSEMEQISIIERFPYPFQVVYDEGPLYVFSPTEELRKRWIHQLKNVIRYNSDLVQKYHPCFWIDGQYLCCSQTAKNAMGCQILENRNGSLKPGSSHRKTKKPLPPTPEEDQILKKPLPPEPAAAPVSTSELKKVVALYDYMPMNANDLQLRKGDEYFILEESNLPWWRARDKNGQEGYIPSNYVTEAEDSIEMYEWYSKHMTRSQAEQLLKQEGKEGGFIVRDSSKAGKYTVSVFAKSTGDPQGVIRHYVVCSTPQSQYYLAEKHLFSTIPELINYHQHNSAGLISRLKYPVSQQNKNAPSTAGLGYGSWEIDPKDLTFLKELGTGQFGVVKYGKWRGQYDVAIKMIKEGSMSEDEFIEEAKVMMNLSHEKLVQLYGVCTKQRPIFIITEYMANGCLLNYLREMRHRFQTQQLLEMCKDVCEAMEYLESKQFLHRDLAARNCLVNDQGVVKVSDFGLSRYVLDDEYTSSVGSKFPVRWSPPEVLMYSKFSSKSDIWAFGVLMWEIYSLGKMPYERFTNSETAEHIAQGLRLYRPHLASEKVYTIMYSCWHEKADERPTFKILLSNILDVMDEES

Structure (SMILES) | IC50
CN(C)C/C=C/C(=O)Nc1cccc(Oc2ccnc(N)c2-c2ccc(OCc3ccccc3)cc2)c1 [A152, (E)-N-(3-((2-amino-3-(4-(benzyloxy)phenyl)pyridin-4-yl)oxy)phenyl)-4-(dimethylamino)but-2-enamide] | < 1 µM
CN(C)C/C=C/C(=O)N1CCCC(Nc2ncnc(N)c2-c2ccc(Oc3ccccc3)cc2)C1 (stereo not drawn) [A160, (E)-1-(3-((6-amino-5-(4-phenoxyphenyl)pyrimidin-4-yl)amino)piperidin-1-yl)-4-(dimethylamino)but-2-en-1-one] | < 1 µM
CN(C)C/C=C/C(=O)N1CC2(CC(Oc3ncnc(N)c3Cl)C2)C1 [A102, (E)-1-(6-((6-amino-5-chloropyrimidin-4-yl)oxy)-2-azaspiro[3.3]heptan-2-yl)-4-(dimethylamino)but-2-en-1-one] | > 1 µM
C=CC(=O)Nc1cccc(Oc2ncnc(N)c2-c2cnn(Cc3cc(F)cc(F)c3)c2)c1 [A183, N-(3-((6-amino-5-(1-(3,5-difluorobenzyl)-1H-pyrazol-4-yl)pyrimidin-4-yl)oxy)phenyl)acrylamide] | < 0.1 µM
CC=CC(=O)[C@H]1CCC[C@@H](Nc2ncnc(N)c2-c2ccc(Oc3ccccc3)cc2)C1 [A146, 1-((1S,3R)-3-(6-Amino-5-(4-phenoxyphenyl)-pyrimidin-4-ylamino)-cyclohexyl)-but-2-en-1-one] | < 0.1 µM
C=CC(=O)Nc1cccc(Oc2ncnc(N)c2-c2cnn(Cc3ccc(C#N)cc3)c2)c1 [A69, N-(3-((6-amino-5-(1-(4-cyanobenzyl)-1H-pyrazol-4-yl)pyrimidin-4-yl)oxy)phenyl)acrylamide] | < 1 µM
Nc1ncnc(NCC2CCN(C(=O)C3=CCC3)CC2)c1-c1ccc(Oc2ccccc2)cc1 [A42, (4-(((6-amino-5-(4-phenoxyphenyl)pyrimidin-4-yl)amino)methyl)piperidin-1-yl)(cyclobut-1-en-1-yl)methanone] | < 1 µM
C=CC(=O)N1CCC(CNc2nc(N)ncc2-c2ccc(Oc3ccccc3)cc2)CC1 [A25, 1-(4-(((2-amino-5-(4-phenoxyphenyl)pyrimidin-4-yl)amino)methyl)piperidin-1-yl)prop-2-en-1-one] | > 1 µM
C=CC(=O)N1CC[C@@H](Oc2ncnc(N)c2-c2ccc(Oc3ccccc3)cc2)C1 [A19, (R)-1-(3-((6-amino-5-(4-phenoxyphenyl)pyrimidin-4-yl)oxy)pyrrolidin-1-yl)prop-2-en-1-one] | < 0.1 µM
C=CC(=O)N1CCC(CNc2ncnc(N)c2-c2ccc(Oc3ccc(F)cc3)cc2)CC1 [A80] | < 1 µM
C=CC(=O)Nc1cccc(Oc2ncnc(N)c2-c2cnn(Cc3ccccc3F)c2)c1 [A184, N-(3-((6-amino-5-(1-(2-fluorobenzyl)-1H-pyrazol-4-yl)pyrimidin-4-yl)oxy)phenyl)acrylamide] | < 0.1 µM
C=CC(=O)N1CCC(CNc2ncnc(N)c2-c2ccc(Cc3ccccc3)cc2)CC1 [A41, 1-(4-(((6-amino-5-(4-benzylphenyl)pyrimidin-4-yl)amino)methyl)piperidin-1-yl)prop-2-en-1-one] | < 0.1 µM
C=CC(=O)N1CC(Nc2ncnc(N)c2-c2ccc(Oc3ccccc3)cc2)C1 [A185, 1-(3-((6-amino-5-(4-phenoxyphenyl)pyrimidin-4-yl)amino)azetidin-1-yl)prop-2-en-1-one] | < 0.1 µM
C#CC(=O)N1CC[C@H](CNc2ncnc(N)c2-c2ccc(Oc3ccccc3)cc2)C1 [A61, (R)-1-(3-(((6-amino-5-(4-phenoxyphenyl)pyrimidin-4-yl)amino)methyl)pyrrolidin-1-yl)prop-2-yn-1-one] | < 0.1 µM
CN(C)C/C=C/C(=O)N1CCC(CNc2ncnc(N)c2-c2ccc(Oc3ccccc3)cc2)CC1 [A153, (E)-1-(4-(((6-amino-5-(4-phenoxyphenyl)pyrimidin-4-yl)amino)methyl)piperidin-1-yl)-4-(dimethylamino)but-2-en-1-one] | < 1 µM
C=CC(=O)N[C@H]1CC[C@@H](Nc2ncnc(N)c2-c2ccc(C(=O)Nc3ccccc3)cc2)CC1 [A159, 4-(4-((cis-4-acrylamidocyclohexyl)amino)-6-aminopyrimidin-5-yl)-N-phenylbenzamide] | > 1 µM
Nc1ncnc(Oc2cccc(N3CC=CC3=O)c2)c1-c1ccc(Oc2ccccc2)cc1 [A40, 1-(3-((6-amino-5-(4-phenoxyphenyl)pyrimidin-4-yl)oxy)phenyl)-1H-pyrrol-2(5H)-one] | < 1 µM
CC#CC(=O)[C@H]1CCC[C@@H](Nc2ncnc(N)c2-c2ccc(Oc3ccccc3)cc2)C1 [A147, 1-((1S,3R)-3-(6-amino-5-(4-phenoxyphenyl)-pyrimidin-4-ylamino)-cyclohexyl)-but-2-yn-1-one] | < 0.1 µM
C=CC(=O)Nc1cccc(Oc2ncnc(N)c2-c2cccc(S(N)(=O)=O)c2)c1 [A163, N-(3-((6-amino-5-(3-sulfamoylphenyl)pyrimidin-4-yl)oxy)phenyl)acrylamide] | > 1 µM
C=CC(=O)N1CCC(CNc2ncnc(N)c2-c2ccc(Oc3ccc(O)cc3)cc2)CC1 [A94, 1-(4-(((6-amino-5-(4-(4-hydroxyphenoxy)phenyl)pyrimidin-4-yl)amino)methyl)piperidin-1-yl)prop-2-en-1-one] | > 1 µM
C=CC(=O)N1CCC(O)(CNc2ncnc(N)c2-c2ccc(Oc3cccc(C(F)(F)F)c3)cc2)CC1 [A169, 1-(4-(((6-amino-5-(4-(3-(trifluoromethyl)phenoxy)phenyl)pyrimidin-4-yl)amino)methyl)-4-hydroxypiperidin-1-yl)prop-2-en-1-one] | < 0.1 µM
C=CC(=O)N1CCC(CNc2ncnc(N)c2-c2ccc(Oc3ccc(C#N)cc3)cc2)CC1 [A86, 4-(4-(4-(((1-acryloylpiperidin-4-yl)methyl)amino)-6-aminopyrimidin-5-yl)phenoxy)benzonitrile] | < 1 µM

Now from value to molecule:

IC50 | Structure (SMILES)
< 1 µM | C=CC(=O)Nc1cccc(Oc2ncnc(N)c2-c2c(F)cc(OCc3ccccc3)cc2F)c1 [A294, N-(3-((6-amino-5-(4-(benzyloxy)-2,6-difluorophenyl)pyrimidin-4-yl)oxy)phenyl)acrylamide]
> 1 µM | Nc1cccc(Oc2ccnc(N)c2-c2ccc(Oc3ccccc3)cc2)c1 [A313, 4-(3-aminophenoxy)-3-(4-phenoxyphenyl)pyridin-2-amine]
< 1 µM | C=CC(=O)N1CC2(CC(Nc3ncnc(N)c3-c3ccc(Oc4ccc(C#N)cc4)cc3)C2)C1 [A207, 4-(4-(4-((2-acryloyl-2-azaspiro[3.3]heptan-6-yl)amino)-6-aminopyrimidin-5-yl)phenoxy)benzonitrile]
> 1 µM | NCc1cccc(-c2cnccc2Oc2ccc(Oc3ccccc3)cc2)c1 [A316, (3-(4-(4-phenoxyphenoxy)pyridin-3-yl)phenyl)methanamine]
< 1 µM | C=CC(=O)NCc1ccc(-c2cnccc2Oc2ccc(Oc3ccccc3)cc2)cc1 [A287, N-(4-(4-(4-phenoxyphenoxy)pyridin-3-yl)benzyl)acrylamide]
< 0.1 µM | Nc1ncnc(Oc2cccc(NC(=O)CCl)c2)c1-c1ccc(OCc2cccc(F)c2)cc1 [A345, N-(3-{6-Amino-5-[4-(3-fluoro-benzyloxy)-phenyl]-pyrimidin-4-yloxy}-phenyl)-2-chloro-acetamide]
< 0.1 µM | C=CC(=O)Nc1cccc(Oc2ncnc(N)c2-c2cc(F)c(OCc3ccccc3)cc2F)c1 [A339, N-(3-((6-amino-5-(4-(benzyloxy)-2,5-difluorophenyl)pyrimidin-4-yl)oxy)phenyl)acrylamide]
> 1 µM | CCC(=O)NCc1ccc(-c2cnccc2Oc2ccc(Oc3ccccc3)cc2)cc1 [A324, N-(4-(4-(4-phenoxyphenoxy)pyridin-3-yl)benzyl)propionamide]
< 0.1 µM | C=CC(=O)Nc1cccc(Oc2ncnc(N)c2-c2ccc(OCc3ccccc3)c(F)c2)c1 [A348, N-{3-[6-Amino-5-(4-benzyloxy-3-fluoro-phenyl)-pyrimidin-4-yloxy]-phenyl}-acrylamide]
> 1 µM | Nc1ccc(-c2cnccc2Oc2ccc(Oc3ccccc3)cc2)cc1 [A314, 4-(4-(4-phenoxyphenoxy)pyridin-3-yl)aniline]
< 0.1 µM | C=CC(=O)Nc1cccc(Oc2ncnc(N)c2-c2cnn(Cc3cccc(Cl)c3)c2)c1 [A191, N-(3-((6-amino-5-(1-(3-chlorobenzyl)-1H-pyrazol-4-yl)pyrimidin-4-yl)oxy)phenyl)acrylamide]
> 1 µM | C=CC(=O)NCC1CCCN(c2ncnc(N)c2-c2ccc(Oc3ccccc3)cc2)C1 (stereo not drawn) [A309, N-((1-(6-amino-5-(4-phenoxyphenyl)pyrimidin-4-yl)piperidin-3-yl)methyl)acrylamide]
> 1 µM | C=CC(=O)N1CC2(CC(Oc3ncnc(N)c3-c3ccc(Oc4cccnc4)cc3)C2)C1 [A221, 1-(6-((6-amino-5-(4-(pyridin-3-yloxy)phenyl)pyrimidin-4-yl)oxy)-2-azaspiro[3.3]heptan-2-yl)prop-2-en-1-one]
< 0.1 µM | C=CC(=O)Nc1cccc(Oc2ncnc(N)c2-c2cnn(Cc3cccc(C(=O)OC)c3)c2)c1 [A206, methyl 3-((4-(4-(3-acrylamidophenoxy)-6-aminopyrimidin-5-yl)-1H-pyrazol-1-yl)methyl)benzoate]
> 1 µM | Nc1cccc(-c2cnccc2Oc2ccc(Oc3ccccc3)cc2)c1 [A312, 3-(4-(4-phenoxyphenoxy)pyridin-3-yl)aniline]
< 1 µM | CN(C)C/C=C/C(=O)N1CCC2(CC(Nc3ncnc(N)c3-c3ccc(Oc4ccccc4)cc3)C2)C1 (stereo not drawn) [A226, (E)-1-(2-((6-amino-5-(4-phenoxyphenyl)pyrimidin-4-yl)amino)-6-azaspiro[3.4]octan-6-yl)-4-(dimethylamino)but-2-en-1-one]
< 0.1 µM | C=CC(=O)Nc1cccc(Oc2ncnc(N)c2-c2cnn(Cc3cccc(N(C)C)c3)c2)c1 [A212, N-(3-((6-amino-5-(1-(3-(dimethylamino)benzyl)-1H-pyrazol-4-yl)pyrimidin-4-yl)oxy)phenyl)acrylamide]
